Laboratory results as given in patent publication US20080045514A1 (Cytovia, Inc., priority 2006, published 2008).

What was measured:
Type in all cases: cell-based
[1] = system: human breast cancer cell line T-47D; experiment: Caspase cascade activation (EC50), T-47D; settings: Homo sapiens; T47D cells; caspase cascade activation; read-out: caspase potency (EC50) T47D
Procedure, shortened: (§1)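 Cells at 0.65×10^6 cells/mL exposed to compound at 0.016 to 10 μM final (1% DMSO) for 48 h at 37° C, 5% CO2. Caspase activity then read with 14 μM Ac-DEVD-R110 fluorogenic substrate in lysolecithin/DTT/PIPES pH 7.2 buffer at ex 485/em 530 nm after 3 h at room temperature. EC50 fitted sigmoidally from net RFU ratio to control.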

[2] = system: human hepatocellular carcinoma cell line SNU398; experiment: Caspase cascade activation (EC50), SNU398; settings: Homo sapiens, SNU-398; SNU398 cells; caspase cascade activation; read-out: caspase potency (EC50) SNU398
Procedure, shortened: as §1

[3] = system: human leukemia cell line K562; experiment: Inhibition of cell proliferation (GI50), K562; settings: Homo sapiens; K562 cells, 48 h, CellTiter-Glo
Procedure, shortened: (§2)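 Cells at 4.4×10^4 cells/mL were exposed to test compound (1 nM to 10 μM final) in RPMI-1640 with DMSO for 48 h at 37 °C, 5% CO2. Viability was read by CellTiter-Glo luminescence. GI50 is where (Ltest−LStart)/(LMax−LStart)=0.5, with LStart a 0.5 h baseline and LMax untreated cells.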

[4] = system: human B cell lymphoblastoid cell line Ramos; experiment: Caspase cascade activation (EC50), Ramos; settings: Homo sapiens, RAMOS cells, read-out: caspase potency (EC50) RAMOS
Procedure, shortened: as §1

[5] = system: multi-drug resistant (MDR) murine leukemia cell line P388/ADR; experiment: Inhibition of cell proliferation (GI50), P388/ADR; settings: Mus musculus; P388/ADR multi-drug resistant cells
Description: (§3) Human breast cancer cell lines T-47D, human hepatocellular carcinoma cell line SNU398, human colon carcinoma cell line HCT116, human lung cancer cell line H1299, human leukemia cell line K562, human lymphoma cell line Raji, human B cell lymphoblastoid cell line Ramos, and human Burkitt's lymphoma cell line Namalwa were grown and harvested as in Example 100. An aliquot of […] of cells (4.4×10^4 cells/mL) was added to a well of a 96-well microtiter plate containing 5 μL of a 10% DMSO in RPMI-1640 media solution containing 10 nM to 100 μM of 3-(2-chlorophenyl)-6-(3,4-methylenedioxyphenyl)-7H-[1,2,4]triazolo[3,4-b][1,3,4]thiadiazine (1 nM to 10 μM final). An aliquot of 45 μL of cells was added to a well of a 96-well microtiter plate containing 5 μL of a 10% DMSO in RPMI-1640 media solution without compound as the control sample for maximal cell proliferation (LMax). The samples were mixed by agitation and then incubated at 37° C. for 48 h in a 5% CO2-95% humidity incubator. After incubation, the samples were removed from the incubator and 25 μL of CellTiter-Glo™ reagent (Promega) was added. The samples were mixed by agitation and incubated at room temperature for 10-15 min. Plates were then read using a luminescent plate reader (Model SPECTRAfluor Plus, Tecan) to give Ltest values.
(§4) The samples were mixed by agitation and then incubated at 37° C. for 0.5 h in a 5% CO2-95% humidity incubator. After incubation, the samples were removed from the incubator and 25 μL of CellTiter-Glo™ reagent (Promega) was added. The samples were mixed by agitation and incubated at […] 10-15 min at room temperature in a 5% CO2-95% humidity incubator. Fluorescence was read as above, (LStart) defining luminescence for initial cell number used as baseline in GI50 determinations.
(§5) Calculation: GI50 (dose for 50% inhibition of cell proliferation) is the concentration where [(Ltest−LStart)/(LMax−LStart)]=0.5.
(§6) Several compounds were tested in human sarcoma cell line MES-SA and multi-drug resistant (MDR) human sarcoma cell line MES-SA/ADR, murine leukemia cell line P388 and multi-drug resistant (MDR) murine leukemia cell line P388/ADR, and the data are summarized in Table III.

[6] = system: human Burkitt's lymphoma cell line Namalwa; experiment: Inhibition of cell proliferation (GI50), Namalwa; settings: Homo sapiens, Burkitts lymphoma cell; Namalwa cells, 48 h, CellTiter-Glo
Procedure, shortened: as §2

[7] = system: multi-drug resistant (MDR) human sarcoma cell line MES-SA/ADR; experiment: Inhibition of cell proliferation (GI50), MES-SA/ADR; settings: MES-SA/ADR multi-drug resistant cells
Description: as §3, §4, §5, §6

[8] = system: murine leukemia cell line P388; experiment: Inhibition of cell proliferation (GI50), P388; settings: Mus musculus; P388 cells
Description: as §3, §4, §5, §6

[9] = system: human lymphoma cell line Raji; experiment: Caspase cascade activation (EC50), Raji; settings: Homo sapiens, RAJI cells, read-out: caspase potency (EC50) RAJI
Procedure, shortened: as §1

[10] = system: human B cell lymphoblastoid cell line Ramos; experiment: Inhibition of cell proliferation (GI50), Ramos; settings: Homo sapiens; Ramos cells, 48 h, CellTiter-Glo
Procedure, shortened: as §2

[11] = system: human lymphoma cell line Raji; experiment: Inhibition of cell proliferation (GI50), Raji; settings: Homo sapiens; Raji cells, 48 h, CellTiter-Glo
Procedure, shortened: as §2

[12] = system: human sarcoma cell line MES-SA; experiment: Inhibition of cell proliferation (GI50), MES-SA; settings: MES-SA cells
Description: as §3, §4, §5, §6

[13] = system: human Burkitt's lymphoma cell line Namalwa; experiment: Caspase cascade activation (EC50), Namalwa; settings: Homo sapiens, Burkitts lymphoma cell; Namalwa cells; caspase cascade activation; read-out: caspase potency (EC50) Namalwa
Procedure, shortened: as §1

[14] = system: human colon carcinoma cell line HCT116; experiment: Inhibition of cell proliferation (GI50), HCT116; settings: Homo sapiens; HCT 116 cells, 48 h, CellTiter-Glo
Procedure, shortened: as §2

[15] = system: human colon carcinoma cell line HCT116; experiment: Caspase cascade activation (EC50), HCT116; settings: Homo sapiens, HCT-116; HCT116 cells; caspase cascade activation; read-out: caspase potency (EC50) HCT116
Procedure, shortened: as §1

[16] = system: human hepatocellular carcinoma cell line SNU398; experiment: Inhibition of cell proliferation (GI50), SNU398; settings: Homo sapiens; SNU 398 cells, 48 h, CellTiter-Glo
Procedure, shortened: as §2

[17] = system: human lung cancer cell line H1299; experiment: Inhibition of cell proliferation (GI50), H1299; settings: NCI-H1299, H1299 cells, 48 h, CellTiter-Glo
Description: as §3, §4, §5

[18] = system: human breast cancer cell line T-47D; experiment: Inhibition of cell proliferation (GI50), T47D; settings: Homo sapiens; T47D cells, 48 h, CellTiter-Glo
Procedure, shortened: as §2

[19] = system: human cancer cell line H1299; experiment: Caspase cascade activation (EC50), H1299; settings: NCI-H1299, H1299 cells, read-out: caspase potency (EC50) H1299
Procedure, shortened: as §1

Structure (SMILES) | EC50 [1] | EC50 [2] | GI50 [3] | EC50 [4] | GI50 [5] | GI50 [6] | GI50 [7] | GI50 [8] | EC50 [9] | GI50 [10] | GI50 [11] | GI50 [12] | EC50 [13] | GI50 [14] | EC50 [15] | GI50 [16] | GI50 [17] | GI50 [18] | EC50 [19]
COc1cc(-c2nnc3n2N=C(c2ccc4c(c2)OCO4)CS3)cc(Cl)c1OC [Example 4, 3-(3-Chloro-4,5-dimethoxyphenyl)-6-(3,4-methylenedioxyphenyl)-7H-[1,2,4]triazolo[3,4-b][1,3,4]thiadiazine] | 168 nM | 47 nM | 24 nM | 31 nM | 16 nM | 31 nM | 28 nM | 12 nM | 32 nM | 12 nM | 26 nM | 30 nM | 36 nM | 150 nM | 61 nM |  |  |  | 
COc1cc(OC)cc(-c2nnc3n2N=C(c2ccc4c(c2)OCO4)CS3)c1 [Example 2, 3-(3,5-Dimethoxyphenyl)-6-(3,4-methylenedioxyphenyl)-7H-[1,2,4]triazolo[3,4-b][1,3,4]thiadiazine] | 508 nM | 141 nM | 27 nM | 89 nM | 29 nM | 20 nM | 154 nM | 20 nM | 112 nM | 11 nM | 53 nM | 59 nM | 117 nM | 190 nM | 139 nM |  |  |  | 
COc1cc(-c2nnc3n2N=C(c2ccc4c(c2)OCO4)CS3)cc(OC)c1OC [Example M1, 3-(3,4,5-Trimethoxyphenyl)-6-(3,4-methylenedioxyphenyl)-7H-[1,2,4]triazolo[3,4-b][1,3,4]thiadiazine] | 61 nM | 28 nM | 18 nM | 13 nM | 10 nM | 13 nM | 25 nM | 7 nM | 19 nM | 16 nM | 41 nM | 17 nM | 31 nM | 25 nM | 40 nM | 12 nM | 166 nM | 22 nM | 68 nM
COc1ccccc1-c1nnc2n1N=C(c1ccc3c(c1)OCO3)CS2 [V, 3-(2-Methoxyphenyl)-6-(3,4-methylenedioxyphenyl)-7H-[1,2,4]triazolo[3,4-b][1,3,4]thiadiazine] | 62 nM | 68 nM |  | 75 nM | 43 nM |  | 123 nM | 31 nM | 81 nM |  |  | 83 nM | 61 nM |  | 111 nM |  |  |  | 
COc1ccc(C2=Nn3c(nnc3-c3cccc(OC)c3)SC2)cc1 [Example X, 3-(3-methoxyphenyl)-6-(4-methoxyphenyl)-7H-[1,2,4]triazolo[3,4-b][1,3,4]thiadiazine] | 523 nM | 67 nM | 32 nM | 67 nM | 77 nM | 119 nM | 196 nM | 57 nM | 83 nM | 14 nM | 62 nM | 418 nM | 66 nM | 157 nM | 119 nM | 55 nM |  | 400 nM | 680 nM
COc1ccc(C2=Nn3c(nnc3-c3cc(OC)c(OC)c(OC)c3)SC2)cc1 [Example A2, 3-(3,4,5-Trimethoxyphenyl)-6-(4-methoxyphenyl)-7H-[1,2,4]triazolo[3,4-b][1,3,4]thiadiazine] | 517 nM | 36 nM |  | 32 nM | 25 nM |  | 63 nM | 23 nM | 49 nM |  |  | 44 nM | 36 nM |  | 154 nM |  |  |  | 
